Source: PubChem BioAssay AID1845196 (Molecular Pharmacology Branch, DTP, NCI, 2023)

System: 292921-168-R tumor spheroid viability
Test: Anticancer human tumor 292921-168-R patient-derived pancreatic carcinoma cell line growth inhibition
Conditions: spheroids with HUVEC and MSC; for IC50: curve of first compound; for viability, T/C: stronger effect = lower value
Procedure, shortened: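 Complex spheroids of malignant cells with endothelial cells and mesenchymal stem cells; agents alone or combined, from near clinical Cmax (or 10 microM if unknown) down in half-log steps, 0.25% DMSO final.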

[1] = second compound 30 pM, first compound 0.0316 µM
[2] = second compound 30 pM, first compound 0.1 µM
[3] = second compound 30 pM, first compound 0.316 µM
[4] = second compound 30 pM, first compound 1 µM
[5] = second compound 30 pM, first compound 3.16 µM
[6] = second compound 30 pM, first compound 10 µM
[7] = second compound 94.9 pM, first compound 0.0316 µM
[8] = second compound 94.9 pM, first compound 0.1 µM
[9] = second compound 94.9 pM, first compound 0.316 µM
[10] = second compound 94.9 pM, first compound 1 µM
[11] = second compound 94.9 pM, first compound 3.16 µM
[12] = second compound 94.9 pM, first compound 10 µM
[13] = second compound 0.0003 µM, first compound 0.0316 µM
[14] = second compound 0.0003 µM, first compound 0.1 µM
[15] = second compound 0.0003 µM, first compound 0.316 µM
[16] = second compound 0.0003 µM, first compound 1 µM
[17] = second compound 0.0003 µM, first compound 3.16 µM
[18] = second compound 0.0003 µM, first compound 10 µM
[19] = second compound 0.000949 µM, first compound 0.0316 µM
[20] = second compound 0.000949 µM, first compound 0.1 µM
[21] = second compound 0.000949 µM, first compound 0.316 µM
[22] = second compound 0.000949 µM, first compound 1 µM
[23] = second compound 0.000949 µM, first compound 3.16 µM
[24] = second compound 0.000949 µM, first compound 10 µM
[25] = second compound 0.003 µM, first compound 0.0316 µM
[26] = second compound 0.003 µM, first compound 0.1 µM
[27] = second compound 0.003 µM, first compound 0.316 µM
[28] = second compound 0.003 µM, first compound 1 µM
[29] = second compound 0.003 µM, first compound 3.16 µM
[30] = second compound 0.003 µM, first compound 10 µM
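Note: spheroids exposed to compounds for 7 days.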

## CC(C)n1c(=O)n(C)c2cnc3cc(F)c(-c4ccc(OCCCN5CCCCC5)nc4)cc3c21 + COc1cc2c(cc1O)CCNC21CSC2c3c(OC(C)=O)c(C)c4c(c3C(COC1=O)N1C(O)C3Cc5cc(C)c(OC)c(O)c5C(C21)N3C)OCO4
Second compound 30 pM
  IC50: 3.53 µM
Second compound 94.9 pM
  IC50: < 0.0316 µM
Second compound 0.0003 µM
  IC50: < 0.0316 µM
Second compound 0.000949 µM
  IC50: < 0.0316 µM
Second compound 0.003 µM
  IC50: < 0.0316 µM
[1]
  viability, T/C: 52.2%
[2]
  viability, T/C: 64.9%
[3]
  viability, T/C: 60%
[4]
  viability, T/C: 64%
[5]
  viability, T/C: 49.6%
[6]
  viability, T/C: 28.1%
[7]
  viability, T/C: 39.2%
[8]
  viability, T/C: 36%
[9]
  viability, T/C: 39%
[10]
  viability, T/C: 35.8%
[11]
  viability, T/C: 38.6%
[12]
  viability, T/C: 23.9%
[13]
  viability, T/C: 20.9%
[14]
  viability, T/C: 21.3%
[15]
  viability, T/C: 20.8%
[16]
  viability, T/C: 24.8%
[17]
  viability, T/C: 29.4%
[18]
  viability, T/C: 19.5%
[19]
  viability, T/C: 2.03%
[20]
  viability, T/C: 2.57%
[21]
  viability, T/C: 2.94%
[22]
  viability, T/C: 4.97%
[23]
  viability, T/C: 7.02%
[24]
  viability, T/C: 5.36%
[25]
  viability, T/C: 0.16%
[26]
  viability, T/C: 0.18%
[27]
  viability, T/C: 0.2%
[28]
  viability, T/C: 0.15%
[29]
  viability, T/C: 0.13%
[30]
  viability, T/C: 0.22%

## COc1ccc([C@@H](O)c2cc(-c3ncnc4cc(N5CCOCC5)ccc34)c(F)cc2Cl)nn1 + COc1cc2c(cc1O)CCNC21CSC2c3c(OC(C)=O)c(C)c4c(c3C(COC1=O)N1C(O)C3Cc5cc(C)c(OC)c(O)c5C(C21)N3C)OCO4
Second compound 30 pM
  IC50: 1.44 µM
Second compound 94.9 pM
  IC50: 0.871 µM
Second compound 0.0003 µM
  IC50: < 0.0316 µM
Second compound 0.000949 µM
  IC50: < 0.0316 µM
Second compound 0.003 µM
  IC50: < 0.0316 µM
[1]
  viability, T/C: 100%
[2]
  viability, T/C: 107%
[3]
  viability, T/C: 95.6%
[4]
  viability, T/C: 58.6%
[5]
  viability, T/C: 31.1%
[6]
  viability, T/C: 19.5%
[7]
  viability, T/C: 105%
[8]
  viability, T/C: 99.2%
[9]
  viability, T/C: 78.7%
[10]
  viability, T/C: 45.4%
[11]
  viability, T/C: 27.4%
[12]
  viability, T/C: 19%
[13]
  viability, T/C: 40.7%
[14]
  viability, T/C: 43.3%
[15]
  viability, T/C: 26.3%
[16]
  viability, T/C: 13.7%
[17]
  viability, T/C: 9.98%
[18]
  viability, T/C: 7.7%
[19]
  viability, T/C: 2.51%
[20]
  viability, T/C: 2.48%
[21]
  viability, T/C: 0.8%
[22]
  viability, T/C: 0.09%
[23]
  viability, T/C: 0.1%
[24]
  viability, T/C: 0.26%
[25]
  viability, T/C: 0.14%
[26]
  viability, T/C: 0.23%
[27]
  viability, T/C: 0.49%
[28]
  viability, T/C: 1.37%
[29]
  viability, T/C: 1.46%
[30]
  viability, T/C: 1.42%

## O=C(c1cc(Cc2n[nH]c(=O)c3ccccc23)ccc1F)N1CCN(C(=O)C2CC2)CC1 + Cn1nnc2c(C(N)=O)ncn2c1=O
Second compound 1 µM
  IC50: 12.9 µM
Second compound 3.16 µM
  IC50: 17.7 µM
Second compound 10 µM
  IC50: 8.8 µM
Second compound 31.6 µM
  IC50: 4.05 µM
Second compound 100 µM
  IC50: 0.573 µM
Second compound 1 µM, first compound 0.0949 µM
  viability, T/C: 89.2%
Second compound 1 µM, first compound 0.3 µM
  viability, T/C: 93.1%
Second compound 1 µM, first compound 0.949 µM
  viability, T/C: 87%
Second compound 1 µM, first compound 3 µM
  viability, T/C: 86.1%
Second compound 1 µM, first compound 9.49 µM
  viability, T/C: 55.6%
Second compound 1 µM, first compound 30 µM
  viability, T/C: 34.2%
Second compound 3.16 µM, first compound 0.0949 µM
  viability, T/C: 100%
Second compound 3.16 µM, first compound 0.3 µM
  viability, T/C: 101%
Second compound 3.16 µM, first compound 0.949 µM
  viability, T/C: 94%
Second compound 3.16 µM, first compound 3 µM
  viability, T/C: 93.6%
Second compound 3.16 µM, first compound 9.49 µM
  viability, T/C: 63.4%
Second compound 3.16 µM, first compound 30 µM
  viability, T/C: 38.5%
Second compound 10 µM, first compound 0.0949 µM
  viability, T/C: 94.7%
Second compound 10 µM, first compound 0.3 µM
  viability, T/C: 92.4%
Second compound 10 µM, first compound 0.949 µM
  viability, T/C: 96.5%
Second compound 10 µM, first compound 3 µM
  viability, T/C: 82.2%
Second compound 10 µM, first compound 9.49 µM
  viability, T/C: 48%
Second compound 10 µM, first compound 30 µM
  viability, T/C: 28.3%
Second compound 31.6 µM, first compound 0.0949 µM
  viability, T/C: 88%
Second compound 31.6 µM, first compound 0.3 µM
  viability, T/C: 86.6%
Second compound 31.6 µM, first compound 0.949 µM
  viability, T/C: 76%
Second compound 31.6 µM, first compound 3 µM
  viability, T/C: 56.8%
Second compound 31.6 µM, first compound 9.49 µM
  viability, T/C: 32.2%
Second compound 31.6 µM, first compound 30 µM
  viability, T/C: 21.4%
Second compound 100 µM, first compound 0.0949 µM
  viability, T/C: 74.6%
Second compound 100 µM, first compound 0.3 µM
  viability, T/C: 58.2%
Second compound 100 µM, first compound 0.949 µM
  viability, T/C: 44%
Second compound 100 µM, first compound 3 µM
  viability, T/C: 29%
Second compound 100 µM, first compound 9.49 µM
  viability, T/C: 19.1%
Second compound 100 µM, first compound 30 µM
  viability, T/C: 17.2%
